# In patent US20230105984A1, “COMPOSITIONS AND METHODS FOR THE TREATMENT OF LIVER DISEASES AND DISORDERS” (AXCELLA HEALTH INC., priority 2019, published 2023):
# Where “and” joins values, the source holds several entries; their conditions need not be identical. Equal values may be shown once.
# What was measured:
# [1] = system: human primary hepatocytes; test: Intracellular lipid accumulation (steatosis) in primary human hepatocytes co-treated with sFA+TNF-α, LipidTOX fluorescence microscopy after 72h; assay type: cell-based; parameters: Rx effect (lipid): scale not given here; settings: for Rx effect (Lipid: total lipid area subtracted from baseline sFA+TNFa, normalized to nuclei count): 72 h; for Rx effect (lipid): donor 2
# Procedure: Hepatocyte lipotoxicity appears to be a central driver of hepatic cellular injury via oxidative stress and endoplasmic reticulum (ER) stress. The ability of amino acids combined to therapeutics agents (Rx) to influence steatosis (lipid accumulation) and inflammation in hepatocytes was assessed using human primary hepatocytes purchased from two sources: Lonza and Sekisui Xenotech. […] After 6 hours, cells were washed twice and incubated overnight at 37° C., 5% CO2 in hepatocytes plating media. On day 1, cells were washed twice and incubated for 24h in Hepatocytes defined medium (Corning) supplemented with 2mM Glutamax (Gibco), and 1x Penicillin/Streptomycin in the same conditions described above. […] The values are published in the Human Metabolome Database (Wishart DS, Tzur D, Knox C, et al., HMDB: the Human Metabolome Database. Nucleic Acids Res. 2007 Jan; 35(Database issue):[…]-6. 17202168; which is hereby incorporated by reference in its entirety). […] After 24 hours incubation, media was removed for chemokine analysis (MCP1) and the same co treatment was reapplied for an additional 48 hours for a total of 72 hours. After 72 hours, cells were washed twice with PBS 1x (Gibco), fixed with 4% Paraformaldehyde, and washed twice with PBS 1x (100 ul). […] The LipidTOXTM neutral lipid stain has an extremely high affinity for neutral lipid droplets that was detected by fluorescence microscopy using a high content imager (Molecular Devices). Lipid was normalized to the specific per well cell density determined by nuclei count.
# [2] = system: MCP1/CCL2 secretion; test: MCP1/CCL2 secretion by primary human hepatocytes co-treated with sFA+TNF-α, ELISA after 24h; assay type: cell-based; parameters: Rx effect / Rx effect (MCP1): scale not given here; settings: for Rx effect: MCP1; for MCP1 level / MCP1 secretion compared to baseline (sFA+TNF-α): Results 1, donors 1 and 2, AA compositions at 20X; for MCP1 level / MCP1 secretion level compared to the baseline (sFA+TNF-α): Results 2, donor 2
# Procedure: Hepatocyte lipotoxicity appears to be a central driver of hepatic cellular injury via oxidative stress and endoplasmic reticulum (ER) stress. The ability of amino acids combined to therapeutics agents (Rx) to influence steatosis (lipid accumulation) and inflammation in hepatocytes was assessed using human primary hepatocytes purchased from two sources: Lonza and Sekisui Xenotech. Primary hepatocytes from two healthy human donor were seeded on day 0 at density of 60000 cells in 96 well optical microplates (Thermofisher) in hepatocyte plating media (William's E medium (Gibco) supplemented with 10% heat-inactivated FBS (Atlanta Bio), 2mM Glutamax (Gibco), and 0.2% Primocin (InVivoGen) and incubated for 6 hours at 37° C., 5% CO2. After 6 hours, cells were washed twice and incubated overnight at 37° C., 5% CO2 in hepatocytes plating media. On day 1, cells were washed twice and incubated for 24h in Hepatocytes defined medium (Corning) supplemented with 2mM Glutamax (Gibco), and 1x Penicillin/Streptomycin in the same conditions described above. On day 2, cells were washed twice with DPBS 1X (Gibco) and maintained in amino acid-free WEM (US Biologicals) containing a defined custom amino acid concentration based on the mean physiological concentrations in blood. The values are published in the Human Metabolome Database (Wishart DS, Tzur D, Knox C, et al., HMDB: the Human Metabolome Database. Nucleic Acids Res. 2007 Jan; 35(Database issue):[…]-6. 17202168; which is hereby incorporated by reference in its entirety). […] Cells were maintained in this defined pretreatment media for 24 hours at 37° C., 5% CO2. […] After 24 hours incubation, media was removed for chemokine analysis (MCP1) and the same co treatment was reapplied for an additional 48 hours for a total of 72 hours. Human CCL2 (MCP-1) was measured by ELISA (Human […] DuoSet ELISA, R&D Systems) at 1/20 dilution in 1X Reagent Diluent (Reagent Ancillary Kit 2, R&D Systems). Lipid was normalized to the specific per well cell density determined by nuclei count.
# [3] = Results 1, donors 1 and 2, AA compositions at 20X
compound,measurement,setting,value
"Cc1cc(F)c(C(=O)Nc2cccc(-c3nncn3C(C)C)n2)cc1-n1cnc(C2CC2)c1 [Selonsertib, 5-(4-cyclopropyl-1H-imidazol-1-yl)-2-fluoro-N-(6-(4-isopropyl-4H-1,2,4-triazol-3-yl)pyridin-2-yl)-4-methylbenzamide]","Rx effect (Lipid: total lipid area subtracted from baseline sFA+TNFa, normalized to nuclei count)","[1]; Donor 1, Rx Conc. 0.063 µM",-0.060
same,"Rx effect (Lipid: total lipid area subtracted from baseline sFA+TNFa, normalized to nuclei count)","[1]; Donor 1, Rx Conc. 1.000 µM",-0.154
same,"Rx effect (Lipid: total lipid area subtracted from baseline sFA+TNFa, normalized to nuclei count)","[1]; Donor 1, Rx Conc. 4.000 µM",-0.152
same,"Rx effect (Lipid: total lipid area subtracted from baseline sFA+TNFa, normalized to nuclei count)","[1]; Donor 2, Rx Conc. 0.063 µM",-0.096
same,"Rx effect (Lipid: total lipid area subtracted from baseline sFA+TNFa, normalized to nuclei count)","[1]; Donor 2, Rx Conc. 1.000 µM",-0.164
same,"Rx effect (Lipid: total lipid area subtracted from baseline sFA+TNFa, normalized to nuclei count)","[1]; Donor 2, Rx Conc. 4.000 µM",-0.307
same,lipid level compared to baseline (sFA+TNFa),[1]; [3],slight reduction in lipid level
same,lipid level compared to baseline (sFA+TNFa),"[1]; Results 2, donor 2",slight reduction in lipid level
same,Rx effect (lipid),[1]; Rx 0.0625 µM,-0.024
same,Rx effect (lipid),[1]; Rx 1 µM,-0.156
same,Rx effect (lipid),[1]; Rx 4 µM,-0.178
same,Rx effect,"[2]; donor 1, Rx 0.063 µM",-0.167
same,Rx effect,"[2]; donor 1, Rx 1.000 µM",-0.503
same,Rx effect,"[2]; donor 1, Rx 4.000 µM",-0.552
same,Rx effect,"[2]; donor 2, Rx 0.063 µM",-0.306
same,Rx effect,"[2]; donor 2, Rx 1.000 µM",-0.152
same,Rx effect,"[2]; donor 2, Rx 4.000 µM",-0.462
same,MCP1 level / MCP1 secretion compared to baseline (sFA+TNF-α),[2],slight reduction in MCP1 secretion
same,MCP1 level / MCP1 secretion level compared to the baseline (sFA+TNF-α),[2],no change or a slight reduction in MCP1 secretion level
same,Rx effect (MCP1),"[2]; donor 2, Rx 0.0625 µM",0.004
same,Rx effect (MCP1),"[2]; donor 2, Rx 1 µM",-0.411
same,Rx effect (MCP1),"[2]; donor 2, Rx 4 µM",-0.463
"O=C(O)c1ccnc(N2CC(O)(c3ccc(OCc4c(-c5c(Cl)cccc5Cl)noc4C4CC4)cc3Cl)C2)c1 [Cilofexor, 2-(3-(2-chloro-4-((5-cyclopropyl-3-(2,6-dichlorophenyl)isoxazol-4-yl)methoxy)phenyl)-3-hydroxyazetidin-1-yl)isonicotinic acid]","Rx effect (Lipid: total lipid area subtracted from baseline sFA+TNFa, normalized to nuclei count)","[1]; Donor 1, Rx Conc. 0.031 µM",0.019
same,"Rx effect (Lipid: total lipid area subtracted from baseline sFA+TNFa, normalized to nuclei count)","[1]; Donor 1, Rx Conc. 0.125 µM",0.072
same,"Rx effect (Lipid: total lipid area subtracted from baseline sFA+TNFa, normalized to nuclei count)","[1]; Donor 1, Rx Conc. 0.500 µM",0.027
same,"Rx effect (Lipid: total lipid area subtracted from baseline sFA+TNFa, normalized to nuclei count)","[1]; Donor 1, Rx Conc. 2.000 µM",0.195
same,"Rx effect (Lipid: total lipid area subtracted from baseline sFA+TNFa, normalized to nuclei count)","[1]; Donor 2, Rx Conc. 0.031 µM",-0.049
same,"Rx effect (Lipid: total lipid area subtracted from baseline sFA+TNFa, normalized to nuclei count)","[1]; Donor 2, Rx Conc. 0.125 µM",0.031
same,"Rx effect (Lipid: total lipid area subtracted from baseline sFA+TNFa, normalized to nuclei count)","[1]; Donor 2, Rx Conc. 0.500 µM",0.104
same,"Rx effect (Lipid: total lipid area subtracted from baseline sFA+TNFa, normalized to nuclei count)","[1]; Donor 2, Rx Conc. 2.000 µM",0.050
same,lipid level compared to baseline (sFA+TNFa),[1]; [3],no changes
same,lipid level compared to baseline (sFA+TNFa),"[1]; Results 2, donor 2",no changes in lipid level
same,Rx effect (lipid),[1]; Rx 0.0313 µM,-0.110
same,Rx effect (lipid),[1]; Rx 0.125 µM,0.001
same,Rx effect (lipid),[1]; Rx 0.5 µM,0.088
same,Rx effect (lipid),[1]; Rx 2 µM,0.080
same,Rx effect,"[2]; donor 1, Rx 0.031 µM",-0.009
same,Rx effect,"[2]; donor 1, Rx 0.125 µM",0.582
same,Rx effect,"[2]; donor 1, Rx 0.500 µM",1.210
same,Rx effect,"[2]; donor 1, Rx 2.000 µM",1.898
same,Rx effect,"[2]; donor 2, Rx 0.125 µM",0.28
same,Rx effect,"[2]; donor 2, Rx 0.500 µM",0.47
same,Rx effect,"[2]; donor 2, Rx 2.000 µM",0.69 and 0.695
same,MCP1 level / MCP1 secretion compared to baseline (sFA+TNF-α),[2],slight increase
same,MCP1 level / MCP1 secretion level compared to the baseline (sFA+TNF-α),[2],no change or a slight increase in MCP1 secretion level
same,Rx effect (MCP1),"[2]; donor 2, Rx 0.0313 µM",-0.265
same,Rx effect (MCP1),"[2]; donor 2, Rx 0.125 µM",0.229
same,Rx effect (MCP1),"[2]; donor 2, Rx 0.5 µM",0.525
same,Rx effect (MCP1),"[2]; donor 2, Rx 2 µM",0.301
"COc1ccccc1[C@H](Cn1c(=O)n(C(C)(C)C(=O)O)c(=O)c2c(C)c(-c3ncco3)sc21)OC1CCOCC1 [Firsocostat, (R)-2-(1-(2-(2-methoxyphenyl)-2-((tetrahydro-2H-pyran-4-yl)oxy)ethyl)-5-methyl-6-(oxazol-2-yl)-2,4-dioxo-1,4-dihydrothieno[2,3-d]pyrimidin-3(2H)-yl)-2-methylpropanoic acid]","Rx effect (Lipid: total lipid area subtracted from baseline sFA+TNFa, normalized to nuclei count)","[1]; Donor 1, Rx Conc. 0.063 µM",-0.210
same,"Rx effect (Lipid: total lipid area subtracted from baseline sFA+TNFa, normalized to nuclei count)","[1]; Donor 1, Rx Conc. 1.000 µM",-0.412
same,"Rx effect (Lipid: total lipid area subtracted from baseline sFA+TNFa, normalized to nuclei count)","[1]; Donor 1, Rx Conc. 4.000 µM",-0.317
same,"Rx effect (Lipid: total lipid area subtracted from baseline sFA+TNFa, normalized to nuclei count)","[1]; Donor 2, Rx Conc. 0.063 µM",-0.246
same,"Rx effect (Lipid: total lipid area subtracted from baseline sFA+TNFa, normalized to nuclei count)","[1]; Donor 2, Rx Conc. 1.000 µM",-0.449
same,"Rx effect (Lipid: total lipid area subtracted from baseline sFA+TNFa, normalized to nuclei count)","[1]; Donor 2, Rx Conc. 4.000 µM",-0.485
same,lipid level compared to baseline (sFA+TNFa),[1]; [3],slight reduction in lipid level
same,lipid level compared to baseline (sFA+TNFa),"[1]; Results 2, donor 2",slight reduction in lipid level
same,Rx effect (lipid),[1]; Rx 0.0625 µM,-0.147
same,Rx effect (lipid),[1]; Rx 1 µM,-0.404
same,Rx effect (lipid),[1]; Rx 4 µM,-0.458
same,Rx effect,"[2]; donor 1, Rx 0.063 µM",-0.233
same,Rx effect,"[2]; donor 1, Rx 1.000 µM",-0.827
same,Rx effect,"[2]; donor 1, Rx 4.000 µM",-0.479
same,Rx effect,"[2]; donor 2, Rx 0.063 µM",-0.319
same,Rx effect,"[2]; donor 2, Rx 1.000 µM",-0.614
same,Rx effect,"[2]; donor 2, Rx 4.000 µM",-0.775
same,MCP1 level / MCP1 secretion compared to baseline (sFA+TNF-α),[2],slight reduction in MCP1 secretion
same,MCP1 level / MCP1 secretion level compared to the baseline (sFA+TNF-α),[2],no change or a slight reduction in MCP1 secretion level
same,Rx effect (MCP1),"[2]; donor 2, Rx 0.0625 µM",-0.147
same,Rx effect (MCP1),"[2]; donor 2, Rx 1 µM",-0.682
same,Rx effect (MCP1),"[2]; donor 2, Rx 4 µM",-0.510
"O=C(O)c1cc(F)c2nc(N3C4CC[C@H]3C[C@H](OCc3c(-c5ccccc5OC(F)(F)F)noc3C3CC3)C4)sc2c1 [Tropifexor, 2-[(3-endo)-3-[[5-cyclopropyl-3-[2-(trifluoromethoxy)phenyl]-4-isoxazolyl]methoxy]-8-azabicyclo[3.2.1]oct-8-yl]-4-fluoro-6-benzothiazolecarboxylic acid]","Rx effect (Lipid: total lipid area subtracted from baseline sFA+TNFa, normalized to nuclei count)","[1]; Donor 1, Rx Conc. 0.063 µM",0.169
same,"Rx effect (Lipid: total lipid area subtracted from baseline sFA+TNFa, normalized to nuclei count)","[1]; Donor 1, Rx Conc. 1.000 µM",0.185
same,"Rx effect (Lipid: total lipid area subtracted from baseline sFA+TNFa, normalized to nuclei count)","[1]; Donor 1, Rx Conc. 4.000 µM",0.214
same,"Rx effect (Lipid: total lipid area subtracted from baseline sFA+TNFa, normalized to nuclei count)","[1]; Donor 2, Rx Conc. 0.063 µM",0.132
same,"Rx effect (Lipid: total lipid area subtracted from baseline sFA+TNFa, normalized to nuclei count)","[1]; Donor 2, Rx Conc. 1.000 µM",0.083
same,"Rx effect (Lipid: total lipid area subtracted from baseline sFA+TNFa, normalized to nuclei count)","[1]; Donor 2, Rx Conc. 4.000 µM",0.049
same,lipid level compared to baseline (sFA+TNFa),[1]; [3],slight increase in lipid level
same,Rx effect,"[2]; donor 1, Rx 0.063 µM",0.956
same,Rx effect,"[2]; donor 1, Rx 1.000 µM",0.877
same,Rx effect,"[2]; donor 1, Rx 4.000 µM",0.658
same,Rx effect,"[2]; donor 2, Rx 0.063 µM",-0.16
same,MCP1 level / MCP1 secretion compared to baseline (sFA+TNF-α),[2],slight increase
